Reference: article PMC10924921, “Mi-2β promotes immune evasion in melanoma by activating EZH2 methylation” (Nature Communications, 2024)

What was measured:
Experiment in all cases: biochemical
Design in all cases: KINOMEscan active-site competition binding panel (468 kinase assays), per cent of control at 1000 nM
Conditions in all cases: KINOMEscan per cent of control (binding competition); read-out: Percent Control
BRK = target: T1, BRK (Homo sapiens, UniProt Q13882)
T1 construct: gene PTK6
Text: (§1) Figure S7 / Percent Control

BTK = BTK (Homo sapiens, UniProt Q06187)
Text: as §1

CAMK1B = target: T2, CAMK1B (Homo sapiens, UniProt Q6P2M8)
T2 construct: gene PNCK
T2 sequence (Q6P2M8 whole entry): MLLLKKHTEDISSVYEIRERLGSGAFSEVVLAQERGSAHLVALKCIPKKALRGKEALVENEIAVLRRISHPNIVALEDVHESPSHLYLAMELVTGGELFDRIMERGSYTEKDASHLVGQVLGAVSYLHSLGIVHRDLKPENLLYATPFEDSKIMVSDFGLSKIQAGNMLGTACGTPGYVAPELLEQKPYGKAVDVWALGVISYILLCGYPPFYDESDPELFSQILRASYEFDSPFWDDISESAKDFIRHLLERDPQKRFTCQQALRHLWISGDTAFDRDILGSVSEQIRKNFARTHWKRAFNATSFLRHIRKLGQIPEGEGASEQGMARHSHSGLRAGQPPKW
Text: as §1

CDK11 = target: T3, CDK11 (Homo sapiens, UniProt Q9BWU1)
T3 construct: gene CDK19
Text: as §1

CHEK1 = CHEK1 (Homo sapiens, UniProt O14757)
Text: as §1

CSF1R-autoinhibited = CSF1R-autoinhibited (Homo sapiens, UniProt P07333)
Text: as §1

CSNK2A1 = CSNK2A1 (Homo sapiens, UniProt P68400)
Text: as §1

ERK3 = target: T4, ERK3 (Homo sapiens, UniProt Q16659)
T4 construct: gene MAPK6
T4 sequence (Q16659 whole entry): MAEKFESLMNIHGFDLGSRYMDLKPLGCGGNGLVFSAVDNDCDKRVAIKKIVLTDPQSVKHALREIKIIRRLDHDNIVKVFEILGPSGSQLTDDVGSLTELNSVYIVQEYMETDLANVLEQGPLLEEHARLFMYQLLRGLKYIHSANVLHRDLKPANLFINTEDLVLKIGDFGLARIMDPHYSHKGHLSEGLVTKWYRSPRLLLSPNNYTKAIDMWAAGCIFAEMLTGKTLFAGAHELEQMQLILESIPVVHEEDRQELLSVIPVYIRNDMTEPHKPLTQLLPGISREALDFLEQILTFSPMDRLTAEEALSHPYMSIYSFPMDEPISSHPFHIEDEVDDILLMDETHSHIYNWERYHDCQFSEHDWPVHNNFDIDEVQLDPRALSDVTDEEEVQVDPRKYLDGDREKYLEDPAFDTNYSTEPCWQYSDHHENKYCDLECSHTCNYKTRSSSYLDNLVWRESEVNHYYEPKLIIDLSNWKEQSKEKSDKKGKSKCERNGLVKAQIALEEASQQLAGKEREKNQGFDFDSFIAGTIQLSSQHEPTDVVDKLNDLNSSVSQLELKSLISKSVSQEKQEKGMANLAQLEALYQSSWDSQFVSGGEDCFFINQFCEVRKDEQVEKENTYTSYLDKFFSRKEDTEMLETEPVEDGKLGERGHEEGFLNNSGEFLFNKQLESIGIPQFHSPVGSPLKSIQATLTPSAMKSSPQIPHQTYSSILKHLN
Text: as §1

KIT(V559D,T670I) = KIT(V559D,T670I) (Homo sapiens, UniProt P10721, T670I/V559D)
Text: as §1

PDGFRB = PDGFRB (Homo sapiens, UniProt P09619)
Text: as §1

PIK3CA(E545K) = PIK3CA(E545K) (Homo sapiens, UniProt P42336, E545K)
Text: as §1

PIK3CB = PIK3CB (Homo sapiens, UniProt P42338)
Text: as §1

PLK2 = PLK2 (Homo sapiens, UniProt Q9NYY3)
Text: as §1

PRKCD = PRKCD (Homo sapiens, UniProt Q05655)
Sequence of PRKCD (Q05655 whole entry): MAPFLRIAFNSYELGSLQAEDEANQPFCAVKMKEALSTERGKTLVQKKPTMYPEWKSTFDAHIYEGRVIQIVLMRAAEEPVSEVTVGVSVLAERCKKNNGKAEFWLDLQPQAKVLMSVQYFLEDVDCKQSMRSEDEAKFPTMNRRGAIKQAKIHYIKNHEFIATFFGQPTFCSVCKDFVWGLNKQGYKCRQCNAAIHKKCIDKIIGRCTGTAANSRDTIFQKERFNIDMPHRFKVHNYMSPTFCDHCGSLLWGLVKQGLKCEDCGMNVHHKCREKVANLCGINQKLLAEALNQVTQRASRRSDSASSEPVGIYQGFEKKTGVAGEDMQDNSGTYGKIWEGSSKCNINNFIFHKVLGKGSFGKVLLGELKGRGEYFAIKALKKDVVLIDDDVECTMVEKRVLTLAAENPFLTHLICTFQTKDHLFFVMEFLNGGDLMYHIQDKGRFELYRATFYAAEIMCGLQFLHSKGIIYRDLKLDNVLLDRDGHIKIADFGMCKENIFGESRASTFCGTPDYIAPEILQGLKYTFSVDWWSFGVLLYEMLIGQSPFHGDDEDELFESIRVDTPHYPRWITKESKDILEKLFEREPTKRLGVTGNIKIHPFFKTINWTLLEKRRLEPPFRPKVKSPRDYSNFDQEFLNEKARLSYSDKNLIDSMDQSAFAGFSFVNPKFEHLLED
Text: as §1

PRKG1 = PRKG1 (Homo sapiens, UniProt Q13976)
Text: as §1

RET(V804M) = RET(V804M) (Homo sapiens, UniProt P07949, V804M)
Text: as §1

ROCK1 = ROCK1 (Homo sapiens, UniProt Q13464)
Text: as §1

[1] = target: T5, RPS6KA5(Kin.Dom.1-N-terminal) (Homo sapiens, UniProt O75582)
T5 construct: Kin.Dom.1-N-terminal
Text: as §1

SGK = target: T6, SGK (Homo sapiens, UniProt O00141)
T6 construct: gene SGK1
Text: as §1

SGK3 = SGK3 (Homo sapiens, UniProt Q96BR1)
Sequence of SGK3 (Q96BR1 whole entry): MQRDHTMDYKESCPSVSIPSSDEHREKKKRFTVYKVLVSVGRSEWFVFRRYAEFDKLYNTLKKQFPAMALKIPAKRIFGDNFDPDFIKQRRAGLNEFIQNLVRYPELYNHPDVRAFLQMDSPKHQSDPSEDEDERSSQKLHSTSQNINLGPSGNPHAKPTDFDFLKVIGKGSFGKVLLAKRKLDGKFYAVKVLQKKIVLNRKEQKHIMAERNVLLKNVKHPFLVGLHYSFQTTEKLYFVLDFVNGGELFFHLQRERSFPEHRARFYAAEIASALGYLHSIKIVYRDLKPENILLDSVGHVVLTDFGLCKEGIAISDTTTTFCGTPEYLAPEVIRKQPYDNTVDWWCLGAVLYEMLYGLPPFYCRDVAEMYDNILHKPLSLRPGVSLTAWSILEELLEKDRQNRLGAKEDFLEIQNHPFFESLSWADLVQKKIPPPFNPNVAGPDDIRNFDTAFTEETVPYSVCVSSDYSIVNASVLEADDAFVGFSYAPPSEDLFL
Text: as §1

SgK110 = target: T7, SgK110 (Homo sapiens, UniProt P0C264)
T7 construct: gene SBK3
Text: as §1

TBK1 = TBK1 (Homo sapiens, UniProt Q9UHD2)
Text: as §1

TSSK1B = TSSK1B (Homo sapiens, UniProt Q9BXA7)
Text: as §1

WNK2 = WNK2 (Homo sapiens, UniProt Q9Y3S1)
Sequence of WNK2 (Q9Y3S1 whole entry): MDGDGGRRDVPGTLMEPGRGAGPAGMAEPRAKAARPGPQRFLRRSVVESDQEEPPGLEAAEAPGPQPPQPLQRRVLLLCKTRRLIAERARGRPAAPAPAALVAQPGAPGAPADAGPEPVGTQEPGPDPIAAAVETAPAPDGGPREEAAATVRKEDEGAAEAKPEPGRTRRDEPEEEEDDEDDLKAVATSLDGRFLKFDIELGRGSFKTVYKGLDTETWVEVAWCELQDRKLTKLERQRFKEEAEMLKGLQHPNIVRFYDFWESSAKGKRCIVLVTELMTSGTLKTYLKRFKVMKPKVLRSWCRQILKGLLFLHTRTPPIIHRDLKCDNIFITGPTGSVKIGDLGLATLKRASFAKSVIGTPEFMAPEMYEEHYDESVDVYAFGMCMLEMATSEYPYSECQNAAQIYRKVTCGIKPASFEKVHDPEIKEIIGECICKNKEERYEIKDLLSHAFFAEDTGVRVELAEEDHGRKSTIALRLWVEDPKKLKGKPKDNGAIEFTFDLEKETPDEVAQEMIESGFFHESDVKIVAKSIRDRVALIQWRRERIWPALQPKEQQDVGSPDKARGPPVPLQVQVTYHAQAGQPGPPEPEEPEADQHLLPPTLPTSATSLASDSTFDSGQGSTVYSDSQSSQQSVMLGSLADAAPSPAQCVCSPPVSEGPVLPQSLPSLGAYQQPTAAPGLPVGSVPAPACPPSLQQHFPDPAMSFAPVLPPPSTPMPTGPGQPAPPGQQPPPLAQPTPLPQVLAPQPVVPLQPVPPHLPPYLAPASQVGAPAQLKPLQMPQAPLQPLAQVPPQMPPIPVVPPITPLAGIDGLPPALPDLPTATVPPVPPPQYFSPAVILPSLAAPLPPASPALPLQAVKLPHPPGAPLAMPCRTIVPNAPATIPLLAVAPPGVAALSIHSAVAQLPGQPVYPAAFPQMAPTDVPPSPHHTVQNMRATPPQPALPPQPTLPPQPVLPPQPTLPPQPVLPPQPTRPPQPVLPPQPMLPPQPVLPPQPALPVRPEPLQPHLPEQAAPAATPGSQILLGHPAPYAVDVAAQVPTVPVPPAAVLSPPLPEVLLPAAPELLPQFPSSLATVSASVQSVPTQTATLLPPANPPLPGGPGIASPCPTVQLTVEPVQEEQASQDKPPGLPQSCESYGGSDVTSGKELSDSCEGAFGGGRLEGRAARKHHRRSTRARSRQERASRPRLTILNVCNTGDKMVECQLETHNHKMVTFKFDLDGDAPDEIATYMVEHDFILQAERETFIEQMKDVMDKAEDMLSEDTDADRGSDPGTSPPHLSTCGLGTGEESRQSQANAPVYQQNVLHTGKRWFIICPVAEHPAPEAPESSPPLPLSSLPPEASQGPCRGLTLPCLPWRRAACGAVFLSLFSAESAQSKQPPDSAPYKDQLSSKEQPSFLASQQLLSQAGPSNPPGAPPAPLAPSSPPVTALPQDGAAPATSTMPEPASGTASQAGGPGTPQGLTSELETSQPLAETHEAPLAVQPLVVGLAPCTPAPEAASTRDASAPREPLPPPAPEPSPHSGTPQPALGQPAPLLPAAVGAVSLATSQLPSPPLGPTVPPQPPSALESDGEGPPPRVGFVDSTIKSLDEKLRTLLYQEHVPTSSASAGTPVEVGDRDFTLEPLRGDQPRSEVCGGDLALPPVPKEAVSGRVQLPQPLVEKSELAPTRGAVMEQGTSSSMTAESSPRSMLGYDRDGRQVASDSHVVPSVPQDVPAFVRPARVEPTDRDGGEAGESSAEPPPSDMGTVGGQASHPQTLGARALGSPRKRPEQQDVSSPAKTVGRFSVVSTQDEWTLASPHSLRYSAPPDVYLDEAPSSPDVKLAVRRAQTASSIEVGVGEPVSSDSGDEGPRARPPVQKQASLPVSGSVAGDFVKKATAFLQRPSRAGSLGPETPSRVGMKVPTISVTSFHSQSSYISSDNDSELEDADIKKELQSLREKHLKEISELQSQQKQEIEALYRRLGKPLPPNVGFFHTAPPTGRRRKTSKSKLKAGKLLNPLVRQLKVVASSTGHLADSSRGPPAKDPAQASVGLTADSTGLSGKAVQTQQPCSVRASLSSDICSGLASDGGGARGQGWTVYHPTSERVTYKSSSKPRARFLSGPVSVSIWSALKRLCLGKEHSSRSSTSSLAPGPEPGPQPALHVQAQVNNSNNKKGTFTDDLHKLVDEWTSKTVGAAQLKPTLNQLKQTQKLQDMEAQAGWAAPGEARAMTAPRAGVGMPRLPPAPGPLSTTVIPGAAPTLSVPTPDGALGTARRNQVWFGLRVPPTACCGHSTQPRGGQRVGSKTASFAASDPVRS
Text: as §1

T1 sequence (Q13882 whole entry): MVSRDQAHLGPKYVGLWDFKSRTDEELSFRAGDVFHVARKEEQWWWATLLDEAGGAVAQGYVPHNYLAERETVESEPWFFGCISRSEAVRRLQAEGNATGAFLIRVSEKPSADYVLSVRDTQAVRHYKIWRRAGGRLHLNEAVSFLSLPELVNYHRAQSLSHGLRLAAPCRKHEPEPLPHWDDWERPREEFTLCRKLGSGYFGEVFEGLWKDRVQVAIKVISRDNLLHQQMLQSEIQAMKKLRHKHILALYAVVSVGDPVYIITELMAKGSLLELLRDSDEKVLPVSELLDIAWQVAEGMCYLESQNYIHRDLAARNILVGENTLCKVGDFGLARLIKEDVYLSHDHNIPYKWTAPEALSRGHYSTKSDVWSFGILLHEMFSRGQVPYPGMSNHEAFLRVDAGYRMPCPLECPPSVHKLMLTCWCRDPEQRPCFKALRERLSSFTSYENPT

## Cn1c(=O)[nH]c2ccc(-c3cccc(C(=O)NC4CCn5ccnc5C4)c3)cc21 (stereo not drawn) [Z36-MP5]
BRK
  remaining binding at 1 µM: 100%
BTK
  remaining binding at 1 µM: 89%
CAMK1B
  remaining binding at 1 µM: 59%
CDK11
  remaining binding at 1 µM: 82%
CHEK1
  remaining binding at 1 µM: 93%
CSF1R-autoinhibited
  remaining binding at 1 µM: 54%
CSNK2A1
  remaining binding at 1 µM: 61%
ERK3
  remaining binding at 1 µM: 90%
KIT(V559D,T670I)
  remaining binding at 1 µM: 86%
PDGFRB
  remaining binding at 1 µM: 93%
PIK3CA(E545K)
  remaining binding at 1 µM: 48%
PIK3CB
  remaining binding at 1 µM: 71%
PLK2
  remaining binding at 1 µM: 55%
PRKCD
  remaining binding at 1 µM: 97%
PRKG1
  remaining binding at 1 µM: 64%
RET(V804M)
  remaining binding at 1 µM: 36%
ROCK1
  remaining binding at 1 µM: 54%
[1]
  remaining binding at 1 µM: 75%
SGK
  remaining binding at 1 µM: 68%
SGK3
  remaining binding at 1 µM: 60%
SgK110
  remaining binding at 1 µM: 97%
TBK1
  remaining binding at 1 µM: 98%
TSSK1B
  remaining binding at 1 µM: 92%
WNK2
  remaining binding at 1 µM: 63%
